This series deals with CCRIS mutagenicity, Ames/micronucleus/aberration tests. The experiment in a line: CCRIS mutagenicity studies.
[1] abbreviates: Test System: AMES SALMONELLA TYPHIMURIUM, Strain/Indicator: TA98, Metabolic Activation: NONE, Method: PREINCUBATION
Where [2] appears, read: Test System: AMES SALMONELLA TYPHIMURIUM, Strain/Indicator: TA98, Metabolic Activation: RAT, LIVER, S-9, AROCLOR 1254, Method: STANDARD PLATE.
Setting [3] is: Test System: AMES SALMONELLA TYPHIMURIUM, Strain/Indicator: TA98, Metabolic Activation: NONE, Method: STANDARD PLATE.
The mark [4] stands for this setting: Test System: AMES SALMONELLA TYPHIMURIUM, Strain/Indicator: TA100, Metabolic Activation: NONE, Method: STANDARD PLATE.
Where [5] appears, read: Test System: AMES SALMONELLA TYPHIMURIUM, Strain/Indicator: TA100, Metabolic Activation: RAT, LIVER, S-9, AROCLOR 1254, Method: STANDARD PLATE.
The mark [6] stands for this setting: Test System: AMES SALMONELLA TYPHIMURIUM, Strain/Indicator: TA1537, Metabolic Activation: NONE, Method: STANDARD PLATE.
Setting [7] is: Test System: AMES SALMONELLA TYPHIMURIUM, Strain/Indicator: TA1537, Metabolic Activation: RAT, LIVER, S-9, AROCLOR 1254, Method: STANDARD PLATE.

Molecules are shown by their SMILES. The source made the active and inactive calls. How the calls were made is not given here.

Here are results for eleven compounds from PubChem BioAssay AID1259407 (Chemical Carcinogenesis Research Information System (CCRIS), 2018).

For the compound `CC(=O)N(C)c1ccc(N=Nc2ccc(N(C)C(C)=O)cc2)cc1`, the mutagenic call runs as follows: (Test System: AMES SALMONELLA TYPHIMURIUM, Strain/Indicator: TA98, Metabolic Activation: RAT, LIVER, S-9, POLYCHLORINATED BIPHENYLS, Method: PREINCUBATION) “inactive; negative”; (Test System: AMES SALMONELLA TYPHIMURIUM, Strain/Indicator: TA100, Metabolic Activation: RAT, LIVER, S-9, POLYCHLORINATED BIPHENYLS, Method: PREINCUBATION) “inactive; negative”.
As for `C[C@H](CCC(=O)O)[C@H]1CC[C@H]2[C@@H]3CC[C@@H]4C[C@H](O)CC[C@]4(C)[C@H]3C[C@@H](O)[C@]12C`, the mutagenic call is “inactive; negative” (Test System: AMES SALMONELLA TYPHIMURIUM, Strain/Indicator: TA98, Metabolic Activation: NONE, Method: FLUCTUATION TEST); “inactive; negative” under setting [1]; “inactive; negative” (Test System: AMES SALMONELLA TYPHIMURIUM, Strain/Indicator: TA98, Metabolic Activation: RAT, LIVER, S-9, PCB, Method: PREINCUBATION); “inactive; negative” (Test System: AMES SALMONELLA TYPHIMURIUM, Strain/Indicator: TA100, Metabolic Activation: NONE, Method: FLUCTUATION TEST).
In the case of `CC1CNc2cc(O)c3ccc4ccccc4c3c21` (configuration not stated), the mutagenic call runs as follows: under setting [2], “active; positive”; (Test System: AMES SALMONELLA TYPHIMURIUM, Strain/Indicator: TA98, Metabolic Activation: RAT, LIVER, S-9, AROCLOR, Method: STANDARD PLATE) “active; positive”.
On to `Nc1c2ccccc2nc2ccc(Cl)cc12`, for which, where the note is “Test System: AMES SALMONELLA TYPHIMURIUM, Strain/Indicator: TA1537, Metabolic Activation: NONE, Method: PREINCUBATION”, the mutagenic call is “active; positive”.
On to `C1CCC(C2(C3CCCCC3)COCCOCCOCCOCCOCCOCCO2)CC1`, for which the mutagenic call is “inactive; negative” under setting [3]; “inactive; negative” under setting [2]; “inactive; negative” under setting [4]; “inactive; negative” under setting [5]; “inactive; negative” (Test System: AMES SALMONELLA TYPHIMURIUM, Strain/Indicator: TA1530, Metabolic Activation: NONE, Method: STANDARD PLATE); “inactive; negative” (Test System: AMES SALMONELLA TYPHIMURIUM, Strain/Indicator: TA1530, Metabolic Activation: RAT, LIVER, S-9, AROCLOR 1254, Method: STANDARD PLATE). For the same compound, the mutagenic call is, setting by setting: under setting [6], “inactive; negative”; under setting [7], “inactive; negative”.
For `CN(C)CCCNc1c2ccccc2nc2c(N(CCO)CCO)ccc([N+](=O)[O-])c12`, the mutagenic call by setting is: under setting [3], “active; positive”; under setting [4], “active; positive”.
On to `O=C(CCBr)N1CCN(C(=O)CCBr)CC1`, for which the mutagenic call under setting [3] is “inactive; negative”; the mutagenic call under setting [4] was “active; positive”; the mutagenic call (Test System: AMES SALMONELLA TYPHIMURIUM, Strain/Indicator: TA102, Metabolic Activation: NONE, Method: STANDARD PLATE) was “inactive; negative”; the mutagenic call under setting [6] was “inactive; negative”; the mutagenic call (Test System: E. COLI, Strain/Indicator: WP2 (HCR), Metabolic Activation: NONE, Method: STANDARD PLATE) was “active; positive”.
In the case of `Clc1ccc(C(Cl)(Cl)Cl)cc1Cl`, the mutagenic call is “active; positive” (Test System: AMES SALMONELLA TYPHIMURIUM, Strain/Indicator: TA98, Metabolic Activation: HAMSTER, LIVER, S-9, AROCLOR 1254 (30%), Method: PREINCUBATION); “inactive; negative” under setting [1]; “active; positive” (Test System: AMES SALMONELLA TYPHIMURIUM, Strain/Indicator: TA98, Metabolic Activation: RAT, LIVER, S-9, AROCLOR 1254 (30%), Method: PREINCUBATION); “active; positive” (Test System: AMES SALMONELLA TYPHIMURIUM, Strain/Indicator: TA100, Metabolic Activation: HAMSTER, LIVER, S-9, AROCLOR 1254 (30%), Method: PREINCUBATION); “inactive; negative” (Test System: AMES SALMONELLA TYPHIMURIUM, Strain/Indicator: TA100, Metabolic Activation: NONE, Method: PREINCUBATION); “active; positive” (Test System: AMES SALMONELLA TYPHIMURIUM, Strain/Indicator: TA100, Metabolic Activation: RAT, LIVER, S-9, AROCLOR 1254 (30%), Method: PREINCUBATION).
On to `NC(=O)[C@@H]1CCCN1C(=O)[C@H](Cc1cnc[nH]1)NC(=O)[C@@H]1CCC(=O)N1`, for which the mutagenic call is, setting by setting: under setting [3], “inactive; negative”; under setting [2], “inactive; negative”; under setting [4], “inactive; negative”; under setting [5], “inactive; negative”; (Test System: AMES SALMONELLA TYPHIMURIUM, Strain/Indicator: TA1535, Metabolic Activation: NONE, Method: STANDARD PLATE) “inactive; negative”; (Test System: AMES SALMONELLA TYPHIMURIUM, Strain/Indicator: TA1535, Metabolic Activation: RAT, LIVER, S-9, AROCLOR 1254, Method: STANDARD PLATE) “inactive; negative”. For the same compound, the mutagenic call is “inactive; negative” under setting [6] and “inactive; negative” under setting [7].
Regarding `Fc1cnc2ccc3ccccc3c2c1`, the mutagenic call (Test System: AMES SALMONELLA TYPHIMURIUM, Strain/Indicator: TA100, Metabolic Activation: RAT, LIVER, S-9, PHENOBARBITAL AND 5,6-BENZOFLAVONE, Method: PREINCUBATION) was “active; positive”.
For the compound `ONc1ccc(Sc2ccccc2)cc1`, the mutagenic call was “active; positive” (Test System: AMES SALMONELLA TYPHIMURIUM, Strain/Indicator: TA98(1,8-DNP6), Metabolic Activation: NONE, Method: STANDARD PLATE); “active; positive” (Test System: AMES SALMONELLA TYPHIMURIUM, Strain/Indicator: TA98(NR), Metabolic Activation: NONE, Method: STANDARD PLATE); “active; positive” under setting [3].
